{"source": "patent US6921531B2", "about": "“Administering bifunctional molecules containing a drug moiety and presenter protein ligand for therapy” (The Board of Trustees of the Leland Stanford Junior …, priority 1998, dated 2005)", "key": {"[1]": {"biological_target": "T1, FKBP52 (Homo sapiens, UniProt Q02790)", "T1 construct": "His6 (N); made in house", "T1 sequence (Q02790 1-459)": "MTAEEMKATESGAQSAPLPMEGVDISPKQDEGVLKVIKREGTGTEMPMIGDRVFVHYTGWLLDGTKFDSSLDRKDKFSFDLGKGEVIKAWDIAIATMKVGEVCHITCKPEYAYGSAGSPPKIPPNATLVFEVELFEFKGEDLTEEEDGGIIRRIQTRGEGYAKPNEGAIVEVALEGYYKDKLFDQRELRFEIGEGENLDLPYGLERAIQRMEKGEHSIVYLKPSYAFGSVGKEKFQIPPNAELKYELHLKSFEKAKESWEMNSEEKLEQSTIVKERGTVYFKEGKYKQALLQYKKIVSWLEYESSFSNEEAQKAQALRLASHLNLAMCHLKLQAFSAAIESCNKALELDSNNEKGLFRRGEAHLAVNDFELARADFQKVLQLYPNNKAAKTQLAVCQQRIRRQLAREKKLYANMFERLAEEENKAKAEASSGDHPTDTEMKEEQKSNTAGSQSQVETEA", "experiment": "Binding constants (Kd) for FKBP52, isothermal titration calorimetry", "text": "SLF was synthesized according to the procedures of Holt et al. [J. Am. Chem. Soc. 1993, 115, 9925]. SLF was coupled to the N-terminus of the resin-bound protected pYEEI peptide using PyBOP. The heterodimeric SLFpYEEI was deprotected and cleaved from the Novasyn TGT resin (Calbiochem-Novabiochem, San Diego, Ca.) using 25% trifluoroacetic acid and 2.5% triisopropyl silane in methylene chloride and the desired product was isolated using reverse phase HPLC. C. […] Recombinant FKBP12 was expressed as a GST fusion protein and bound to glutathione beads (Pharmacia). Using thrombin (Sigma) to cleave the GST-FKBP12 fusion protein at a thrombin cleavage site in the linker between GST and FKBP12, recombinant FKBP12 could be released from the glutathione beads where GST remained bound. FKBP52 was expressed with a tag of six histidine residues at its N-terminus (pET28c expression vector, Novagen). The recombinant protein was bound via the histidine tag to Ni^2+ NTA agarose beads (Qiagen), washed extensively and eluted with imidazole. […]\nSLFpYEEI and FKpYEEI are bifunctional molecules that can bind FKBP12 and FKBP52 as well as the Fyn SH2 domain (FIG. 2). The binding constants (Kd values) of the bifunctional molecules for the three proteins were measured using isothermal titration calorimetry (ITC) (Table 1)."}, "[2]": {"biological_target": "T2, Lck SH2 domain (Homo sapiens, UniProt P06239)", "T2 construct": "The Fyn, Lck and PLC SH2 domains were expressed in bacteria as GST fusion proteins; GST (cleaved yes); made in house; host or cells: bacteria", "T2 sequence (P06239 127-224 limits assumed)": "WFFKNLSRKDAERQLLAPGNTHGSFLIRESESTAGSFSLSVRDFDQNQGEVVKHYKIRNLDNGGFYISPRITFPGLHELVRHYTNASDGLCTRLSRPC", "experiment": "Competition binding assay of radioactive Lck SH2 domain to pYEEI beads", "settings": "1.0 μM ligand plus FKBP12 2.0 μM", "text": "The pYEEI peptide was coupled to Affi-Gel 10 beads (Biorad) via its amino-group. The Fyn, Lck and PLC SH2 domains were expressed in bacteria as GST fusion proteins. The linker between the GST protein and the SH2 domain contained a thrombin cleavage site and a protein kinase A (PKA) phosphorylation site. The fusion protein on glutathione beads was radioactively labeled at the PKA phosphorylation site using PKA (Sigma). After extensive washing of the beads, the radioactive SH2 domain was released by cleavage with thrombin (Sigma). […] The beads were resuspended in […] PBS and the radioactivity was counted in a liquid scintillation counter after addition of 3 ml scintillation fluid. The radioactivity remaining in the 100 L supernatant was counted in the same way. It was determined that under the conditions described 65% Fyn, 25% PLC and 15%Lck SH2 domain were bound to the beads. […]\nTo test if the presence of FKBP12 affects the affinity of FKpYEEI for other SH2 domains aside from the PLC SH2 domain, FKpYEEI and FKBP12 were added to binding reactions containing the Fyn, Lck or PLC SH2 domains (FIG. 10). […] The binding reactions were rotated at room temperature for 2 hours, centrifuged and analysed as described above. […]"}}}
{"compound": "CC[C@H](C)[C@H](NC(=O)[C@H](CCC(=O)O)NC(=O)[C@H](CCC(=O)O)NC(=O)[C@H](Cc1ccc(OP(=O)(O)O)cc1)NC(=O)OCC[C@@H]1/C=C(\\C)C[C@H](C)C[C@H](OC)[C@H]2O[C@@](O)(C(=O)C(=O)N3CCCC[C@H]3C(=O)O[C@H](/C(C)=C/[C@@H]3CC[C@@H](O)[C@H](OC)C3)[C@H](C)[C@@H](O)CC1=O)[C@H](C)C[C@@H]2OC)C(=O)O", "note": "[FKpYEEI]", "values": [{"measurement": "Kd", "setting": "[1]", "value": 150, "unit": "nM"}, {"measurement": "Effect of FKBP12 on affinity for the Lck SH2 domain", "setting": "[2]", "value": "does not affect the affinity"}]}
{"compound": "CC[C@H](C)[C@H](NC(=O)[C@H](CCC(=O)O)NC(=O)[C@H](CCC(=O)O)NC(=O)[C@H](Cc1ccc(OP(=O)(O)O)cc1)NC(=O)COc1cccc([C@@H](CCc2ccc(OC)c(OC)c2)OC(=O)[C@@H]2CCCCN2C(=O)C(=O)C(C)(C)CC)c1)C(=O)O", "note": "[SLFpYEEI]", "values": [{"measurement": "Effect of FKBP12 on affinity for the Lck SH2 domain", "setting": "[2]", "value": "reduced binding"}]}
